# pIC50: −log10 of the molar value. Structures can show the parent of a compound that is named as a salt. Where two headings read alike, the source gives them in different places.
# Target: T1, Human Factor D (Homo sapiens, UniProt P00746)
# T1 construct: purified from human serum; purchased Complement Technology, Inc; host or cells: human serum
# Assay: Human Factor D assay (Example 8)
# Format: biochemical
# How it was run: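 First, compound at various concentrations is mixed with 80 nM (final) human serum Factor D in 50 mM Tris, 1M NaCl, pH 7.5 for 5 min at room temperature.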
# [1] = Table 3, Human Factor D 80 nM, substrate Z-L-Lys-SBzl, read-out: IC50 (Stars)
# [2] = Table 1, Human Factor D 80 nM, substrate Z-L-Lys-SBzl, read-out: IC50
# T1 sequence (P00746 26-253): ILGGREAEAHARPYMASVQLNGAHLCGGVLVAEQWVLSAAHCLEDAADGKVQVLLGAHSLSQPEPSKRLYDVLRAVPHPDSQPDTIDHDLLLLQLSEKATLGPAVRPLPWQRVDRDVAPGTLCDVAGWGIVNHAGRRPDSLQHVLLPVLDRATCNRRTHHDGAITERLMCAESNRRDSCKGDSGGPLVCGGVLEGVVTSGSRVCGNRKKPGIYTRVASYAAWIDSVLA
compound,measurement,setting,value
"NC(=O)c1nn(CC(=O)N2CC(=O)C[C@H]2C(=O)Nc2cccc(-c3ccccc3Cl)c2F)c2ccccc12 [Compound 355, (S)-1-(2-(2-((2′-chloro-2-fluoro-[1,1′-biphenyl]-3-yl)carbamoyl)-4-oxopyrrolidin-1-yl)-2-oxoethyl)-1H-indazole-3-carboxamide]",pIC50,[1],> 6.00
"NC(=O)c1nn(CC(=O)N2C[C@H](F)C[C@H]2C(=O)Nc2cccc(-c3cc(F)c(F)cc3Cl)c2F)c2ccc(Br)cc12 [Compound 130, 5-bromo-1-(2-((2S,4R)-2-(2′-chloro-2,4′,5′-trifluorobiphenyl-3-ylcarbamoyl)-4-fluoropyrrolidin-1-yl)-2-oxoethyl)-1H-indazole-3-carboxamide]",pIC50,"Table 2, Human Factor D 80 nM, substrate Z-L-Lys-SBzl, read-out: IC50",> 6.00
"NC(=O)n1cc(NC(=O)N2C[C@H](F)C[C@H]2Cn2cc(-c3ccc(F)cc3)nn2)c2ccccc21 [Compound 28, 3-((2S,4R)-4-fluoro-2-((4-(4-fluorophenyl)-1H-1,2,3-triazol-1-yl)methyl)pyrrolidine-1-carboxamido)-1H-indole-1-carboxamide]",pIC50,[2],< 5.00
"NC(=O)c1nn(CC(=O)N2C[C@H](F)C[C@H]2C(=O)Nc2cccc(Br)n2)c2ccsc12 [Compound 106, 1-(2-((2S,4R)-2-((6-Bromopyridin-2-yl)carbamoyl)-4-fluoropyrrolidin-1-yl)-2-oxoethyl)-1H-thieno[3,2-c]pyrazole-3-carboxamide]",pIC50,[2],> 6.00
"CC(=O)c1cn(CC(=O)N2C[C@H](F)C[C@H]2C(=O)N(C)Cc2cccc(Cl)c2F)c2ccccc12 [Compound 34, (2S,4R)-1-(2-(3-acetyl-1H-indol-1-yl)acetyl)-N-(3-chloro-2-fluorobenzyl)-4-fluoro-N-methylpyrrolidine-2-carboxamide]",pIC50,[2],< 5.00
"NC(=O)c1nn(CC(=O)N2C[C@@H](F)C[C@H]2C(=O)Nc2cccc(-c3ccccc3Cl)c2F)c2ccccc12 [Compound 352, 1-(2-((2S,4S)-2-((2′-chloro-2-fluoro-[1,1′-biphenyl]-3-yl)carbamoyl)-4-fluoropyrrolidin-1-yl)-2-oxoethyl)-1H-indazole-3-carboxamide]",pIC50,[1],> 6.00
"NC(=O)c1nn(CC(=O)N2C[C@H](F)C[C@H]2C(=O)Nc2cccc(-c3c(F)cc(F)cc3Cl)c2)c2cnccc12 [Compound 101, 1-(2-((2S,4R)-2-(2′-chloro-4′,6′-difluorobiphenyl-3-ylcarbamoyl)-4-fluoropyrrolidin-1-yl)-2-oxoethyl)-1H-pyrazolo[3,4-c]pyridine-3-carboxamide]",pIC50,[2],> 6.00
"CC(=O)c1nn(CC(=O)N2[C@@H]3C[C@@H]3C[C@H]2C(=O)Nc2cccc(-c3ccc4nc[nH]c4c3Cl)c2F)c2cnc(C)cc12 [Compound 454, (1R,3S,5R)-2-(2-(3-acetyl-5-methyl-1H-pyrazolo[3,4-c]pyridin-1-yl)acetyl)-N-(3-(7-chloro-1H-benzo[d]imidazol-6-yl)-2-fluorophenyl)-2-azabicyclo[3.1.0] hexane-3-carboxamide]",pIC50,[1],> 6.00
"CC(=O)c1cn(CC(=O)N2C[C@H](F)C[C@H]2C(=O)NCc2cccc(Cl)c2F)c2cc(C(=N)N)ccc12 [Compound 382, (2S,4R)-1-(2-(3-Acetyl-6-carbamimidoyl-1H-indol-1-yl)acetyl)-N-(3-chloro-2-fluorobenzyl)-4-fluoropyrrolidine-2-carboxamide TFA]",pIC50,[1],> 6.00
"C=C(F)c1nn(CC(=O)N2C[C@H](F)C[C@H]2C(=O)NCc2cccc(Cl)c2F)c2cnccc12 [Compound 74, (2S,4R)-N-(3-chloro-2-fluorobenzyl)-4-fluoro-1-(2-(3-(1-fluorovinyl)-1H-pyrazolo[3,4-c]pyridin-1-yl)acetyl)pyrrolidine-2-carboxamide]",pIC50,[2],> 6.00
"CC(=O)c1cn(CC(=O)N2C[C@H](F)[C@@H](OCC3CC3)[C@H]2C(=O)NCc2cccc(Cl)c2F)c2cc(O)ccc12 [Compound 21, (2S,3S,4S)-1-(2-(3-acetyl-6-hydroxy-1H-indol-1-yl)acetyl)-N-(3-chloro-2-fluorobenzyl)-3-(cyclopropylmethoxy)-4-fluoropyrrolidine-2-carboxamide]",pIC50,,> 6.00
"O=C(c1cn(CC(=O)N2C[C@H](F)C[C@H]2C(=O)NCc2cccc(Cl)c2F)c2ccccc12)C1CC1 [Compound 24, (2S,4R)-N-(3-chloro-2-fluorobenzyl)-1-(2-(3-(cyclopropanecarbonyl)-1H-indol-1-yl)acetyl)-4-fluoropyrrolidine-2-carboxamide]",pIC50,[2],> 6.00
"NC(=O)c1nn(CC(=O)N2C[C@H](O)C[C@H]2C(=O)Nc2cccc(-c3ccccc3Cl)c2F)c2ccccc12 [Compound 336, 1-(2-((2S,4R)-2-((2′-chloro-2-fluoro-[1,1′-biphenyl]-3-yl)carbamoyl)-4-hydroxypyrrolidin-1-yl)-2-oxoethyl)-1H-indazole-3-carboxamide]",pIC50,[1],> 6.00
"CC(=O)c1cn(CC(=O)N2C[C@H](F)C[C@H]2C(=O)Nc2cccc(-c3ccccc3Cl)c2F)c2cc(F)ccc12 [Compound 325, (2S,4R)-1-(2-(3-acetyl-6-fluoro-1H-indol-1-yl)acetyl)-N-(2′-chloro-2-fluoro-[1,1′-biphenyl]-3-yl)-4-fluoropyrrolidine-2-carboxamide]",pIC50,[1],> 6.00
"CC(=O)c1nn(CC(=O)N2C[C@H](F)C[C@H]2C(=O)Nc2cccc(-c3ccc4c(c3)CNCC4)c2F)c2ccccc12 [Compound 451, (2S,4R)-1-(2-(3-Acetyl-1H-indazol-1-yl)acetyl)-4-fluoro-N-(2-fluoro-3-(1,2,3,4-tetrahydroisoquinolin-7-yl)phenyl)pyrrolidine-2-carboxamide]",pIC50,[1],> 6.00
"NC(=O)c1ccc(Cl)c(-c2cccc(NC(=O)[C@@H]3C[C@@H](F)CN3C(=O)Cn3nc(C(N)=O)c4ccccc43)c2F)c1 [Compound 315, 1-(2-((2S,4R)-2-((5′-carbamoyl-2′-chloro-2-fluoro-[1,1′-biphenyl]-3-yl)carbamoyl)-4-fluoropyrrolidin-1-yl)-2-oxoethyl)-1H-indazole-3-carboxamide]",pIC50,[1],> 6.00
"NC(=O)c1nn(CC(=O)N2C[C@H](F)C[C@H]2C(=O)Nc2cccc(-c3ccc(F)c(F)c3Cl)c2F)c2ccccc12 [Compound 92, 1-(2-((2S,4R)-2-(2′-chloro-2,3′,4′-trifluorobiphenyl-3-ylcarbamoyl)-4-fluoropyrrolidin-1-yl)-2-oxoethyl)-1H-indazole-3-carboxamide]",pIC50,,> 6.00
"CCOC(=O)CC(=O)N1CCc2c(n(CC(=O)N3C[C@H](F)C[C@H]3C(=O)NCc3cccc(Cl)c3F)c3ccccc23)C1 [Compound 70, ethyl 3-(9-(2-((2S,4R)-2-(3-chloro-2-fluorobenzylcarbamoyl)-4-fluoropyrrolidin-1-yl)-2-oxoethyl)-3,4-dihydro-1H-pyrido[3,4-b]indol-2(9H)-yl)-3-oxopropanoate]",pIC50,[2],< 5.00
"N#Cc1cccc2c(C(N)=O)nn(CC(=O)N3C[C@H](F)C[C@H]3C(=O)Nc3cccc(-c4ccccc4Cl)c3F)c12 [Compound 111, 1-(2-((2S,4R)-2-((2′-Chloro-2-fluoro-[1,1′-biphenyl]-3-yl)carbamoyl)-4-fluoropyrrolidin-1-yl)-2-oxoethyl)-7-cyano-1H-indazole-3-carboxamide]",pIC50,,> 6.00
CC(=O)c1nn(CC(=O)N2C[C@H](F)C[C@H]2C(=O)Nc2cccc(-c3ccccc3Cl)c2F)c2cc(C(=O)O)sc12 [Compound 363],pIC50,[1],> 6.00
